Results from US8569267B2, “Tetracyclic tetrahydrofuran derivatives containing cyclic amine side chain” (Janssen Pharmaceutica, NV, priority 2005, dated 2013).

Experiments:
[1] = target: T1, human cloned 5-HT2C receptor, expressed in CHO cells (Homo sapiens, UniProt P28335); assay: In vitro binding affinity for 5-HT2C receptor ([3H]mesulergine radioligand binding); details: human cloned 5-HT2C receptor; for IC50: read-out: 5-HT2C pIC50 (converted)
T1 construct: expressed in transfected cells; host or cells: CHO cells
T1 sequence (P28335 33-458): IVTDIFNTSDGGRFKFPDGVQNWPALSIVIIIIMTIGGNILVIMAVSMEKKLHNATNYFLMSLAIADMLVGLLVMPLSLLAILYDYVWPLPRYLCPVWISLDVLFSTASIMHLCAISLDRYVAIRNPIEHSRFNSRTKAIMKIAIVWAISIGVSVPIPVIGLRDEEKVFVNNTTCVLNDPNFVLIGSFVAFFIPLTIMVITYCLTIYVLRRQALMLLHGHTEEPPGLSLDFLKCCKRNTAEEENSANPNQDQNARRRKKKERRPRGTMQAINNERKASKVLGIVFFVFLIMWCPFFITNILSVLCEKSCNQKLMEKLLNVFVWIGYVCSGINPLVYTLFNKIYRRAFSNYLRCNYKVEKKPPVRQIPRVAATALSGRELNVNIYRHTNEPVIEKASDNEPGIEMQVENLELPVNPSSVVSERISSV
Outline: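 Receptor-bound radioligand counted after separation from unbound label once equilibrium is reached. Test compound added across a concentration range to tissue preparation plus radioligand; inhibition of binding reflects affinity and concentration.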

[2] = target: T2, human Dopamine D2L receptor (Homo sapiens, UniProt P14416); assay: In vitro binding affinity for human D2L receptor ([3H]Spiperone binding); details: human D2L receptor-transfected CHO cell membranes; for IC50: read-out: D2L pIC50 (converted)
T2 construct: expressed in transfected cells; host or cells: CHO cells
Outline: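 Competition curves were expressed as percent specific binding, measured by scintillation counting after filtration onto GF/B filters and ice-cold Tris washes. Test compounds competed with [3H]Spiperone, added from a 2 nmol/L dilution, for 30 min at 37° C on transfected CHO membranes in pH 7.7 Tris-HCl salt buffer. Butaclamol at 10^−6 mol/l final marked non-specific binding.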

[3] = target: T3, human cloned 5-HT2A receptor, expressed in L929 cells (Homo sapiens, UniProt P28223); assay: In vitro binding affinity for 5-HT2A receptor ([125I]R91150 radioligand binding); details: human cloned 5-HT2A receptor in L929 cells, [125I]R91150; for IC50: read-out: 5-HT2A pIC50 (converted)
T3 construct: expressed in transfected cells; host or cells: L929 cells
Outline: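 Competition radioligand binding to human cloned 5-HT2A receptor expressed in L929 cells, using [125I]R91150 with test compound at various concentrations. At equilibrium, receptor-bound radioactivity was separated from free and counted. Affinity reflects inhibition of radioligand binding.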

[4] = target: T4, NET (norepinephrine transporter) (Rattus norvegicus, UniProt Q63380); assay: In vitro determination of NET reuptake inhibition ([3H]Nixosetine binding, rat brain cortex); details: rat brain cortex; for IC50: read-out: NET pIC50 (converted)
T4 construct: Cortex from rat brain was collected and homogenised; from tissue; host or cells: rat brain cortex
Outline: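 Competition curves and percentage specific binding came from scintillation counting of filter-trapped radioactivity. The membranes were rat cortical homogenate in pH 7.4 Tris buffer with 120 mM NaCl and 5 mM KCl. Test compounds competed with [3H]nisoxetine for binding.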

T4 sequence (Q63380 1-617): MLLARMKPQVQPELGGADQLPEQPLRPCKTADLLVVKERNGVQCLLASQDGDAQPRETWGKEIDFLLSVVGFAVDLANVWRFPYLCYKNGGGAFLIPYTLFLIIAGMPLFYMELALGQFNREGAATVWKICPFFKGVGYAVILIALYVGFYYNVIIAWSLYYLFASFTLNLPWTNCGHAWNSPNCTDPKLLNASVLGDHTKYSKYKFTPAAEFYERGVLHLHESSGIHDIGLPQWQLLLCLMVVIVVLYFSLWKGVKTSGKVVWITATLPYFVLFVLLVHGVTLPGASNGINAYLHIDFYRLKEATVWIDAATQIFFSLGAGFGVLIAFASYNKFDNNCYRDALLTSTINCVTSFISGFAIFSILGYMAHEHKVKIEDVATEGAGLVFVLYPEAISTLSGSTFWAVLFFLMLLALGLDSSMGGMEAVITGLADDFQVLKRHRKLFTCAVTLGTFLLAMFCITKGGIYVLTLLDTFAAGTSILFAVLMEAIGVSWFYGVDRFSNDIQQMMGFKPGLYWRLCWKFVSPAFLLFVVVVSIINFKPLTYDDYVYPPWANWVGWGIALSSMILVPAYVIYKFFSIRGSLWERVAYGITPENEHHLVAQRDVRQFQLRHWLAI
T3 sequence (P28223 whole entry): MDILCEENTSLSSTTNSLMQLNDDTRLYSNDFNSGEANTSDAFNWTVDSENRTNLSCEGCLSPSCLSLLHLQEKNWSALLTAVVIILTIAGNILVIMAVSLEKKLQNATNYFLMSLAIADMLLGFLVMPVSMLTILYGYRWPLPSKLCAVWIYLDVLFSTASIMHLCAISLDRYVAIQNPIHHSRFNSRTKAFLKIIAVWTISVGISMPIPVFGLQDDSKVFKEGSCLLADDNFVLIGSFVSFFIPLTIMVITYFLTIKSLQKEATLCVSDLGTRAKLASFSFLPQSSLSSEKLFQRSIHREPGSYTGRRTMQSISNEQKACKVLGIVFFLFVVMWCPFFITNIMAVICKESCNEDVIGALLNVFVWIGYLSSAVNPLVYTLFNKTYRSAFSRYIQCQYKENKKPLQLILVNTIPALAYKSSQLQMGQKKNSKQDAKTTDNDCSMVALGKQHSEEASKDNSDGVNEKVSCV
T2 sequence (P14416 whole entry): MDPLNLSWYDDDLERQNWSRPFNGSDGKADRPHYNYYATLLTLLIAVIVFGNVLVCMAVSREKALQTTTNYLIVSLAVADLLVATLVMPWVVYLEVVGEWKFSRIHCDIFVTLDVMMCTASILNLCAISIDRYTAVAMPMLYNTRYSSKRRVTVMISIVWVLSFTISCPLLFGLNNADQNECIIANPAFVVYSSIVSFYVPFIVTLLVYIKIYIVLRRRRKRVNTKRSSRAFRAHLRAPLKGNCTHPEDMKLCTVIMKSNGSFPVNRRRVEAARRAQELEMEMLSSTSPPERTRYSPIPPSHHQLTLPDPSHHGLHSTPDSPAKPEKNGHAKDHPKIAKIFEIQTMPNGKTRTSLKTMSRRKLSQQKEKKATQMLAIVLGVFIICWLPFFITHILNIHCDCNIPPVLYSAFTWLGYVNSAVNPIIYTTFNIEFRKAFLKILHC

SMILES | IC50 [1] [nM] | IC50 [2] [nM] | IC50 [3] [nM] | IC50 [4] [nM] | 5-HT2C pIC50 [1] | D2L pIC50 [2] | 5-HT2A pIC50 [3] | NET pIC50 [4]
COc1ccc(N2CCN(CC3CC4c5ccccc5Cc5ccc(F)cc5C4O3)CC2)cc1 (stereo not drawn) [Compound 116] | 20 | 37.2 | 9.77 | 7240 |  |  |  | 
O=C(O)C(=O)O.OC1CCN(CC2CC3c4ccccc4Oc4ccc(Cl)cc4C3O2)CC1 (stereo not drawn) [Compound 284] |  |  |  |  | 7.38 | 7.14 | 7.98 | <5
COc1cccc(OC2CCN(CC3CC4c5ccccc5Cc5ccc(F)cc5C4O3)C2)c1 (mixture of isomers) [Compound 31] | 3.24 | 13.5 | 9.77 | 4070 |  |  |  | 
O=S(=O)(c1ccccc1)n1cccc1CN1CCN(CC2CC3c4ccccc4Cc4ccc(F)cc4C3O2)CC1 (stereo not drawn) [Compound 68] | 117 | 91.2 | 67.6 | 2400 |  |  |  | 
C=CCOC(=O)N1CCN(CC2CC3c4ccccc4Cc4ccc(F)cc4C3O2)CC1 (stereo not drawn) [Compound 84] | 25.1 | 25.7 | 8.13 | > 10000 |  |  |  | 
Fc1ccc2c(c1)C1OC(CN3CCN(Cc4cccc(Oc5ccccc5)c4)CC3)CC1c1ccccc1C2 (stereo not drawn) [Compound 76] | 102 | 67.6 | 66.1 | 851 |  |  |  | 
Fc1cccc(OCC2CCN(CC3CC4c5ccccc5Cc5ccc(F)cc5C4O3)C2)c1 (stereo not drawn) [Compound 27] | 4.27 | 3.89 | 8.71 | 5010 |  |  |  | 
O=C(O)C(=O)O.OCC1CCCN(C[C@H]2C[C@@H]3c4ccccc4Cc4ccc(F)cc4[C@@H]3O2)C1 (single isomer, unassigned) [Compound 149] |  |  |  |  | 9.10 | 8.61 | 9.08 | <5.52
O=C(O)C(=O)O.OC1CCN(CC2CC3c4ccccc4Oc4ccc(F)cc4C3O2)CC1 (racemic) [Compound 282] |  |  |  |  | 6.93 | 6.10 | 7.00 | <5
N#Cc1cccc(OC2CCN(CC3CC4c5ccccc5Cc5ccc(F)cc5C4O3)C2)c1 (mixture of isomers) [Compound 29] | 3.39 | 14.5 | 7.24 | 8510 |  |  |  | 
O=S(=O)(Cc1ccccc1)N1CCN(CC2CC3c4ccccc4Cc4ccc(F)cc4C3O2)CC1 (stereo not drawn) [Compound 105] | 30.9 | 4.07 | 4.68 | > 10000 |  |  |  | 
COc1ccc(CNC(=O)N2CCN(CC3CC4c5ccccc5Cc5ccc(F)cc5C4O3)CC2)c(OC)c1 (stereo not drawn) [Compound 96] | 6.76 | 8.91 | 16.2 | > 10000 |  |  |  | 

Now from value to molecule, other results behind:

IC50 [1] [nM] | IC50 [2] [nM] | IC50 [3] [nM] | IC50 [4] [nM] | SMILES | 5-HT2C pIC50 [1] | D2L pIC50 [2] | 5-HT2A pIC50 [3] | NET pIC50 [4]
2.63 | 15.5 | 1.41 | 5250 | O=C(NC1CCCCCC1)C1CCN(CC2CC3c4ccccc4Cc4ccc(F)cc4C3O2)CC1 (stereo not drawn) [Compound 193] |  |  |  | 
3.8 | 38 | < 10 | > 10000 | O=C(NCC(O)CO)C1CCN(CC2CC3c4ccccc4Cc4ccc(F)cc4C3O2)CC1 (stereo not drawn) [Compound 179] |  |  |  | 
33.1 | 355 | 23.4 | > 10000 | CCOC(=O)C1CCCCN1CC1CC2c3ccccc3Cc3ccc(F)cc3C2O1 (mixture of isomers) [Compound 158] |  |  |  | 
1.2 | 35.5 | 6.46 | > 10000 | CCN(CC)CCN(C)C(=O)C1CCN(CC2CC3c4ccccc4Cc4ccc(F)cc4C3O2)CC1 (stereo not drawn) [Compound 199] |  |  |  | 
10.2 | 24.5 | 2.09 | 1510 | Fc1ccc2c(c1)C1OC(CN3CCC(NC(=S)NCCN4CCOCC4)CC3)CC1c1ccccc1C2 (stereo not drawn) [Compound 253] |  |  |  | 
2.88 | 7.24 | 1.91 | 1450 | O=C(NC1CCCCC1)OCC1CCN(CC2CC3c4ccccc4Cc4ccc(F)cc4C3O2)C1 (mixture of isomers) [Compound 21] |  |  |  | 
